Key:
[1] = Pharmacokinetic study in cynomolgus monkeys (N118029); type: in vivo, cynomolgus monkey (Macaca fascicularis); conditions: male, cynomolgus monkey, plasma, po
Description: All animals were at least 24 months old. […] Males and females were assigned to treatment groups in a stratified manner using the Pristima System based on most recent body weight. Clinical signs, including mortality, moribundity, general appearance, and behavioral changes, were recorded with date, time, and duration. Body weight was measured prior to the first KDS2010 dose. For oral administration, KDS2010 was dissolved in water. In total, 42 monkeys were administered KDS2010 and ultimately sacrificed for autopsy.
In the pharmacokinetic study (N118029), six male monkeys were assigned to 2 groups receiving either 10 or 30 mg/kg oral KDS2010. […] Blood samples were mixed gently, stored in a wet-ice cryo-rack, and centrifuged (approximately 13,200 rpm, 5 min, 4°C) to obtain plasma. The separated plasma was aliquoted into polypropylene tubes and stored frozen until analysis.
A non-compartmental analysis module in Phoenix® WinNonlin® (version 6.4) (Certara Inc., CA, USA) was used to calculate pharmacokinetic (PK) parameters. Systemic exposure to KDS2010 was calculated by applying the linear trapezoidal rule to the area under the plasma concentration–time curve from time zero to the last quantifiable time point (AUClast), and the maximum observed peak plasma concentration (Cmax) and the time to reach Cmax (Tmax) were determined based on the observed data.

[2] = system: APP/PS1 transgenic mouse model of AD; parameters: method as in PMID 30906861; conditions: APP/PS1 mice; short-term (3 days) or long-term (30 days) treatment; cited from earlier work
[3] = H2O2 scavenging capacity test (Amplex red/HRP); conditions: 10 min incubation with H2O2 at RT
Description: To determine the H2O2 scavenging capacity of the test compound, H2O2 concentration was measured using the modified Amplex red/horseradish peroxidase (HRP) detection method as described previously. Briefly, a H2O2 solution was incubated with the test compound for 10 min at room temperature (RT), and then the reaction solution containing 20 mM Amplex red and 200 U/mL HRP was added. The absorbance was measured at 570 nm using a microplate reader. The H2O2 scavenging capacities were compared to a blank negative control and to the known H2O2 scavenger epigallocatechin gallate (EGCG) as a positive control.

cynomolgus monkeys = assay: Oral toxicity studies in cynomolgus monkeys (N217019, G217013, G218027); type: in vivo, cynomolgus monkey (Macaca fascicularis)
Description: (§1) All non-human primate studies were conducted in the Good Laboratory Practice (GLP)-level laboratory of the Korea Institute of Toxicology (KIT, Jeollabuk-do, Korea) and approved by the KIT Institutional Animal Care and Use Committee. Cynomolgus monkeys (Macaca fascicularis) were obtained from the Nafovanny captive-breeding primate facility (Dong Nai Province, Vietnam) and housed individually in stainless cages (543 W × 715L × 818H in mm) during acclimation, pre-treatment, and dosing periods. All animals were at least 24 months old. The environment of the animal room was automatically controlled according to the Standard Operating Procedures of KIT (temperature: 20–29°C, relative humidity: 30–70%, light cycle: 12 h at 300–700 Lux, ventilation: 10–20 times/h, air pressure: negative). Males and females were assigned to treatment groups in a stratified manner using the Pristima System based on most recent body weight. Clinical signs, including mortality, moribundity, general appearance, and behavioral changes, were recorded with date, time, and duration. Body weight was measured prior to the first KDS2010 dose. For oral administration, KDS2010 was dissolved in water. In total, 42 monkeys were administered KDS2010 and ultimately sacrificed for autopsy. The four studies conducted on cynomolgus monkeys are summarized in Table 1 and described in greater detail below.
(§2) In the single-dose escalation study (N118029), each male and female monkey was administered oral KDS2010 at increasing doses of 25, 50, and 100 mg/kg/day once a week. Mortality and general symptoms were observed during the trial period. Body weight was also measured. Blood was collected for hematology, coagulation, and clinical chemistry tests pre-dose (0) and 8, 15, and 22 days post-dose. After administration of 100 mg/kg/day on day 22, an autopsy was performed to observe individual macroscopic findings.
(§3) In the repeated 2-week oral administration toxicity study (G217013) for 4-week dose range finding (DRF), monkeys were assigned to 4 groups of one male and one female. Each group was orally administered KDS2010 at 0, 25, 50, or 100 mg/kg/day once a day for 2 weeks. During the test period, general symptoms were monitored, weight and feed intake measured, and ophthalmological tests performed. Clinical pathological tests (hematology, coagulation, blood biochemistry, and urine tests) were also conducted. All animals were autopsied, during which individual macroscopic findings were recorded, organ weights measured, and samples obtained for histopathology.
(§4) In the repeated 4-week oral administration toxicity with 2-week recovery and toxicokinetic test (G218027), monkeys were assigned to 4 groups of 3 males and 3 females. Each group was orally administered KDS2010 at 0, 10, 20, or 40 mg/kg/day once a day for 4 weeks. Toxicity tests were conducted as described for study G217013. For toxicokinetic measurements, blood samples were collected pre-dose (time 0) and at 1, 2, 4, 6, 8, 10, and 24 h after oral administration on the first day (day 1) and the last day (week 4; day 28) of dosing.

[4] = as above; type: in vivo, cynomolgus monkey (Macaca fascicularis); conditions: cynomolgus monkey, in vivo; cynomolgus monkeys, both sexes, 4-week repeated oral dosing; read-out: No Observed Adverse Effect Level (NOAEL)
Description: as §1, §2, §3, §4

[5] = system: MPTP-induced PD mouse model; assay: MPTP mouse model: glial reactivity (GFAP, LCN2, Iba1 staining, western blot); type: in vivo; conditions: MPTP mice
Description: Throughout the study, confounders were not controlled.
After extensive washing, sections were incubated with corresponding fluorescent secondary antibodies for 2 h and then washed with three times in PBS. Finally, sections were mounted with fluorescent mounting medium (S3023, Dako) and dried. A series of fluorescent images were obtained using an A1 Nikon confocal microscope, and Z-stack images in 3-μm steps were processed for further analysis using ImageJ. Any alteration in brightness or contrast was applied equally to the entire image set.

[6] = system: MPTP-induced PD mouse model; assay: MPTP mouse model: vertical grid test and coat hanger test; type: in vivo; conditions: MPTP mice
Description: Group allocation and outcome assessment, but not the conduct of experiments and data analysis, were performed in a blinded manner. Throughout the study, confounders were not controlled. An acclimation period of 7 days was allowed for animals to stabilize in a new environment before model induction. […] Treatment drugs were dissolved in 100 μL of water and total dose (in mg) was calculated according to individual body weight (in kg).
The MPTP model was established using the acute regimen of four intraperitoneal (i.p.) injections of MPTP-HCl (M0896, Sigma Aldrich, 2 mg/mL in saline, 20 mg/kg for one injection) at 2-h intervals.
Motor deficits of the MPTP-induced PD mouse model were assessed using the vertical grid test as described in the previous study [23]. Briefly, after 2 days of habituation to the testing apparatus, individual mice were gently placed 3 cm from the top, facing upward, and allowed to turn around and climb down. We also performed a coat hanger test as described [24–26]. Briefly, a mouse was gently hung on the middle of a coat hanger and allowed to ascend to the top. Performance was graded as follows: 0, falling off the hanger within 20 s; 1, moving to the side-bar of the hanger; 2, reaching the side-bar of the hanger; 3, climbing the side-bar of the hanger; 4, moving to the top of the hanger; 5, climbing and reaching the safe zone. The test was performed twice and each trial lasted a maximum of 3 min.

[7] = system: MPTP-induced PD mouse model; assay: MPTP mouse model: TH (DAB) and Nissl staining of SNpc and striatum; conditions: MPTP mice; for TH optical density in the striatum / TH-positive cell number in the SNpc: vs MPTP plus vehicle
Description: (§5) Group allocation and outcome assessment, but not the conduct of experiments and data analysis, were performed in a blinded manner. Throughout the study, confounders were not controlled. An acclimation period of 7 days was allowed for animals to stabilize in a new environment before model induction. […] Treatment drugs were dissolved in 100 μL of water and total dose (in mg) was calculated according to individual body weight (in kg). […] An experiment was halted if body weight decreased by 20% or more after MPTP or 6-hydroxydopamine (6-OHDA) treatment.
The MPTP model was established using the acute regimen of four intraperitoneal (i.p.) injections of MPTP-HCl (M0896, Sigma Aldrich, 2 mg/mL in saline, 20 mg/kg for one injection) at 2-h intervals. All MPTP use and safety precautions were strictly followed as described [18].
Coronal sections for striatum and SNpc were prepared at 30-μm thickness and immunostained using a DAB staining kit (TL-060-QHD, Thermo, MA, USA). […] After washing in PBS 3 times, sections were incubated in Primary Antibody Amplifier Quanto (TA-060-QPB, Thermo) for 5 min, washed again in PBS, incubated in HRP Polymer Quanto for 1 h, washed 4 times in PBS, and dipped for 30 s in a 1:10 mixture of DAB + chromogen and DAB + substrate buffer (K3468, Dako, Denmark). Finally, sections were washed, immersed in mounting medium, and dried.
Every 6th section including the SN was stained with anti-TH and the number of TH-positive neurons counted under low magnification (× 10) from the rostral tip of the SNpc to the caudal end of the substantia nigra pars reticulate (SNpr). […] The total number of neurons per section was estimated according to the optical fractionator formula. The total number of SNpc neurons in a hemisphere was then obtained by multiplying the number counted using Stereo Investigator 11 by the slice interval (six).
Other 30-μm-thick coronal sections from the SNpc were Nissl stained to assess viable cell number. Briefly, slices were stained with 0.1% cresyl violet solution for 3 min, rinsed with distilled water, and placed in a chamber filled with 70% ethanol for 1 min. […] A series of bright field images were obtained using an Olympus microscope. The slices were classified according to AP coordinates and Nissl-positive neurons counted using the counting tool of ImageJ (NIH, MD, USA).

6-OHDA model rats = assay: 6-OHDA rat model: stepping test, rotarod test, TH; conditions: 6-OHDA rats
Description: as §5
Finally, the 6-OHDA model was prepared as previously described [21]. Under general anesthesia, all rats received unilateral injections of 8 μg 6-OHDA (Sigma Aldrich) in 4 μL saline/0.1% ascorbic acid into the right medial forebrain bundle (AP − 2.2 mm and L + 1.5 mm relative to the bregma, V − 8.0 mm from the dura) [19], with the tooth bar set at + 4.5 mm.
Motor deficits of 6-OHDA and A53T mutant α-synuclein model rats were assessed as previously described with slight modifications [27]. Briefly, both hind limbs and one forelimb were firmly fixed in the two hands of the experimenter, and the rat was lowered over a treadmill moving at rate of 18 cm/s such that the body remained stationary while the free forelimb was allowed to spontaneously touch the moving treadmill track for 10 s. All experimental sessions were video recorded to count the number of adjusting steps taken in the backward direction. The number of adjusting steps was averaged across four trials in each session.
In addition, impaired motor coordination of 6-OHDA model rats was examined using the rotarod test as previously described with slight modifications [28]. […] Before the first rotarod test, all rats were pre-trained until riding time reached 60 s at 10 rpm (B.S Technolab, Seoul, Korea). Each session consisted of two trials, and riding time was averaged to obtain pre-6-OHDA, 0d, 7d, and 15d results.

[8] = long-term (30-day) treatment, 10 mg/kg/day oral
[9] = post-treatment, administered 3 days after MPTP
[10] = pre-treatment, 10 mg/kg/day oral, 3 days starting 1 day before MPTP

Compound: C[C@H](NCc1ccc(-c2ccc(C(F)(F)F)cc2)cc1)C(N)=O [Compound 18j]
- AUC ([1]; 10 mg/kg): 30600 ± 422 ng·h/mL
- Cmax ([1]; 10 mg/kg): 2230 ± 143 ng/mL
- AUC ([1]; 30 mg/kg): 80800 ± 5370 ng·h/mL
- Cmax ([1]; 30 mg/kg): 4850 ± 568 ng/mL
- memory impairment [2]: effectively ameliorated
- H2O2 scavenging effect [3]: did not show any H2O2 scavenging effect
- maximum dose determined in 2-week DRF study (G217013) (cynomolgus monkeys; cynomolgus monkeys, 0, 25, 50, 100 mg/kg/day p.o. for 2 weeks): 50 mg/kg/day
- adverse effects in toxicity examinations (cynomolgus monkeys; cynomolgus monkeys, 10, 20, 40 mg/kg/day p.o. for 4 weeks): no adverse effects were observed
- findings in single-dose escalation toxicity study (N217019) (cynomolgus monkeys; cynomolgus monkeys, 25, 50 and 100 mg/kg p.o.): no general symptoms, clinical pathological, or gross organ pathology
- changes in body weight (cynomolgus monkeys; cynomolgus monkeys, male and female, 10, 20, 40 mg/kg/day p.o. for 4 weeks): no significant changes
- NOAEL at 4 weeks [4]: 40 mg/kg/day
- GFAP staining intensity in SNpc [5]: significantly reduced
- LCN2 expression in GFAP-positive astrocytes [5]: reversed
- number of Iba1-positive microglia in SNpc [5]: significantly reduced
- reactive transformation of microglia (larger cell bodies, shorter processes) [5]: reversed
- volume of GFAP-positive astrocytes in SNpc (hypertrophy) [5]: eliminated
- MPTP-induced changes of TH, GFAP and iNOS expression (western blotting) ([5]; SNpc): all of these changes were reversed
- vertical grid test: time to turn [6, 8]: reduced
- vertical grid test: total time [6, 8]: reduced
- coat hanger test: motor score [6, 9]: increased
- vertical grid test: rate of missed steps [6, 9]: significantly reduced
- vertical grid test: time to turn [6, 9]: significantly reduced
- vertical grid test: total time [6, 9]: significantly reduced
- vertical grid test: rate of missed steps [6, 10]: significantly reduced
- vertical grid test: time to turn [6, 10]: significantly reduced
- vertical grid test: total time [6, 10]: significantly reduced
- coat hanger test: motor function score ([6]; pre-treatment, 10 mg/kg/day oral, vehicle-treated controls 1.8 ± 0.4, score 0-5): 3.6 ± 0.5
- MPTP-induced reduction in Nissl-positive neurons in SNpc ([7]; post-treatment): but not post-treatment
- TH optical density in the striatum ([7]; post-treatment): significantly increased
- TH-positive cell number in the SNpc ([7]; post-treatment): significantly increased
- MPTP-induced reduction in Nissl-positive neurons in SNpc ([7]; pre-treatment): partially prevented
- TH optical density in the striatum ([7]; pre-treatment): significantly increased
- TH-positive cell number in the SNpc ([7]; pre-treatment): significantly increased
- stepping test: stepping behavior deficit of the contralateral forepaw (6-OHDA model rats; 10 mg/kg/day for 15 days starting 17 days post-6-OHDA): partially but significantly improved
- rotarod test: reduction in riding time (latency to fall) (6-OHDA model rats; 15 days' treatment starting 17 days after 6-OHDA): partially reversed
- nigrostriatal TH loss (6-OHDA model rats; data not shown): not reversed

— paper PMC8608967, “KDS2010, a Newly Developed Reversible MAO-B Inhibitor, as an Effective Therapeutic Candidate for Parkinson’s Disease” (Neurotherapeutics, 2021)
